Laboratory results taken from patent US8889704B2 (Array BioPharma Inc., priority 2011, dated 2014).
pIC50: −log10 of the molar value. Structures can show the parent of a compound that is named as a salt.

Experiments:
Type in all cases: biochemical
[1] = biological target: T1, GST-tagged recombinant full-length human Pim-2 (Homo sapiens, UniProt Q9P1W9); assay: PIM-2 Assay (as Example A); settings: averaged IC50; 4 μM ATP, 1.0 μM PIM2tide, 1.5 nM Pim-2
T1 construct: GST-tagged recombinant full-length human Pim-2; GST
T1 sequence (Q9P1W9 whole entry): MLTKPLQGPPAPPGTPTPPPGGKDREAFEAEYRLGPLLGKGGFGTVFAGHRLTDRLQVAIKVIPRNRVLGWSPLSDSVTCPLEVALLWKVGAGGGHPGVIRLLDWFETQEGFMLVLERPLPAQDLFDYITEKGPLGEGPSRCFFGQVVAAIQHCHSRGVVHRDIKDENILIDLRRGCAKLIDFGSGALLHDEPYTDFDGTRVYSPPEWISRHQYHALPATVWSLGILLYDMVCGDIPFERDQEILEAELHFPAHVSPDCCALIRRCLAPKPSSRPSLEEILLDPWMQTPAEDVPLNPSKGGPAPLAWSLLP
Procedure, shortened: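 Radiometric filter-binding assay: GST-tagged full-length human Pim-2 (1.5 nM) phosphorylates 1.0 μM PIM2tide with 4 μM [γ-33P]ATP for 60 min at 22 °C in pH 7.4 MOPS buffer, 2% DMSO. 10-point 3-fold dilutions from 10 μM top dose; IC50 from 4-parameter fit of percent of control.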

recombinant rat PIM-3 = recombinant rat PIM-3 (Rattus norvegicus, UniProt O70444); assay: PIM-3 Assay (as Example A); settings: averaged IC50; 30 μM ATP, 3.75 μM PIM2tide, 0.5 nM PIM-3
Procedure, shortened: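 Recombinant rat PIM-3 (0.5 nM) with 3.75 μM PIM2tide and 30 μM [γ-33P]ATP in MOPS pH 7.4 buffer, 60 min at 22 °C; labelled peptide captured on phosphocellulose filters and counted by scintillation. 10-point curve (top dose 10 μM, 2% DMSO); IC50 from 4-parameter fit of percent of control.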

PIM-1 = PIM-1 (Homo sapiens, UniProt P11309); assay: Enzyme PIM-1 Assay ([33P]ATP incorporation into PIM2tide, filter plate); settings: averaged IC50; 35 μM ATP, 7.5 μM PIM2tide, 0.25 nM PIM-1, 60 min at 22° C.
PIM-1, sequence (P11309 whole entry, species assumed): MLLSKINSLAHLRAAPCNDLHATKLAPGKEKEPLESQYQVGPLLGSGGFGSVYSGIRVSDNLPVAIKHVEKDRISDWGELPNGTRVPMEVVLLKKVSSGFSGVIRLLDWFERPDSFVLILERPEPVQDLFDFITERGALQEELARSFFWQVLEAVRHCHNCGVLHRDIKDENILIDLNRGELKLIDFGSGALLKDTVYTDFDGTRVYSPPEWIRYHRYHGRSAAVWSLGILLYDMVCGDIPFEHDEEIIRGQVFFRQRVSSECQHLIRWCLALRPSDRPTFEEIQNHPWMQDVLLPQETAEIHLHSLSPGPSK
Procedure, shortened: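 Radiometric assay: 0.25 nM PIM-1 phosphorylates 7.5 μM PIM2tide with 35 μM [γ-33P]ATP in 20 mM MOPS pH 7.4, 10 mM MgCl2, 1 mM DTT, 0.005% Tween-20, 60 min at 22 °C. Product captured on P81 filters, scintillation counted; 10-point 3-fold curve from 10 μM top, 2% DMSO, IC50 by 4-parameter logistic fit of POC.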

SMILES | pIC50 [1] | pIC50 (recombinant rat PIM-3) | pIC50 (PIM-1)
COCC(COC)Oc1cccc2ccc(-c3nnc4ccc([C@@H](N5CC[C@H](N)C5)C(F)(F)F)cn34)nc12 [Example 271, ((S)-1-((R)-1-(3-(8-(1,3-dimethoxypropan-2-yloxy)quinolin-2-yl)-[1,2,4]triazolo[4,3-a]pyridin-6-yl)-2,2,2-trifluoroethyl)pyrrolidin-3-aminedihydrochloride] | 6.19 | 8.37 | 9.14
COCC1(c2cc3nc(-c4nnc5ccc([C@@H](N6CC[C@H](N)C6)C(F)(F)F)cn45)ccc3cc2F)CC1 [Example 165, (S)-1-((R)-2,2,2-trifluoro-1-(3-(6-fluoro-7-(1-(methoxymethyl)cyclopropyl)quinolin-2-yl)-[1,2,4]triazolo[4,3-a]pyridin-6-yl)ethyl)pyrrolidin-3-amine dihydrochloride] | < 7.00 | 8.18 | 8.42
CCOc1ccc2ccc(-c3nnc4ccc([C@@H](N5CCC6(CCCN6)C5)C(F)(F)F)cn34)nc2c1 (stereo partly drawn) [Example 257, 7-ethoxy-2-(6-((1R)-2,2,2-trifluoro-1-(1,7-diazaspiro[4.4]nonan-7-yl)ethyl)-[1,2,4]triazolo[4,3-a]pyridin-3-yl)quinoline dihydrochloride] | 6.14 | 8.05 | 8.84
NC[C@@H]1CCN(C(c2ccc3nnc(-c4ccc5cccc(OCC6CC6)c5n4)n3c2)C(F)(F)F)C1 (stereo partly drawn) [Example 24, ((3S)-1-(1-(3-(8-(cyclopropylmethoxy)quinolin-2-yl)-[1,2,4]triazolo[4,3-a]pyridin-6-yl)-2,2,2-trifluoroethyl)pyrrolidin-3-yl)methanamine dihydrochloride] | 6.03 | 7.12 | 8.70
Cn1cc(-c2ccc3ccc(-c4nnc5ccc([C@H](N6CCC(C)(O)C6)C(F)(F)F)cn45)nc3c2)cn1 (single isomer, unassigned; diastereomer 2) [Example 201, hydrochloride] | < 6.00 | 7.38 | 7.36
COCCOc1cccc2ccc(-c3nnc4ccc([C@@H](N5CC[C@H](N)C5)C(F)(F)F)cn34)nc12 [Example 227, (S)-1-((R)-2,2,2-trifluoro-1-(3-(8-(2-methoxyethoxy)quinolin-2-yl)-[1,2,4]triazolo[4,3-a]pyridin-6-yl)ethyl)pyrrolidin-3-amine dihydrochloride] | 6.34 | 8.60 | 9.32
CC1(NC(=O)c2ccc3ccc(-c4nnc5ccc([C@@H](N6CC[C@H](N)C6)C(F)(F)F)cn45)nc3c2)CC1 [Example 53, 2-(6-((R)-1-((S)-3-aminopyrrolidin-1-yl)-2,2,2-trifluoroethyl)-[1,2,4]triazolo[4,3-a]pyridin-3-yl)-N-(1-methylcyclopropyl)quinoline-7-carboxamide dihydrochloride] | 7.57 | 9.52 | 9.62
COc1cc(F)cc2ccc(-c3nnc4ccc([C@@H](N5CC[C@@](C)(N)C5)C(F)(F)F)cn34)nc12 [Example 241, (R)-3-methyl-1-((R)-2,2,2-trifluoro-1-(3-(6-fluoro-8-methoxyquinolin-2-yl)-[1,2,4]triazolo[4,3-a]pyridin-6-yl)ethyl)pyrrolidin-3-amine dihydrochloride] | < 6.00 | 7.77 | 8.59
CN[C@H]1CCN([C@H](c2ccc3nnc(-c4ccc5cccc(OCC6CC6)c5n4)n3c2)C(F)(F)F)C1 [Example 43, (S)-1-((R)-1-(3-(8-(cyclopropylmethoxy)quinolin-2-yl)-[1,2,4]triazolo[4,3-a]pyridin-6-yl)-2,2,2-trifluoroethyl)-N-methylpyrrolidin-3-amine dihydrochloride] | 7.19 | 8.82 | 9.89
CNC(=O)c1ccc2ccc(-c3nnc4ccc([C@@H](N5CC[C@H](N)C5)C(F)(F)F)cn34)nc2c1 [Example 42, 2-(6-((R)-1-((S)-3-aminopyrrolidin-1-yl)-2,2,2-trifluoroethyl)-[1,2,4]triazolo[4,3-a]pyridin-3-yl)-N-methylquinoline-7-carboxamide dihydrochloride] | 7.31 | 9.30 | 9.59
CC(=O)OCCOc1cc2nc(-c3nnc4ccc([C@@H](N5CC[C@H](N)C5)C(F)(F)F)cn34)ccc2cc1F [Example 122, 2-(2-(6-((R)-1-((S)-3-aminopyrrolidin-1-yl)-2,2,2-trifluoroethyl)-[1,2,4]triazolo[4,3-a]pyridin-3-yl)-6-fluoroquinolin-7-yloxy)ethyl acetate hydrochloride] | < 7.00 | 9.15 | 9.70
CC(C)(O)c1cccc2ccc(-c3nnc4ccc([C@@H](N5CC[C@H](N)C5)C(F)(F)F)cn34)nc12 [Example 225, 2-(2-(6-((R)-1-((S)-3-aminopyrrolidin-1-yl)-2,2,2-trifluoroethyl)-[1,2,4]triazolo[4,3-a]pyridin-3-yl)quinolin-8-yl)propan-2-ol] | 6.86 | 8.96 | 9.57
COc1cc(F)cc2ccc(-c3nnc4ccc([C@H](N5CC[C@](C)(N)C5)C(F)(F)F)cn34)nc12 [Example 218, (S)-3-methyl-1-((S)-2,2,2-trifluoro-1-(3-(6-fluoro-8-methoxyquinolin-2-yl)-[1,2,4]triazolo[4,3-a]pyridin-6-yl)ethyl)pyrrolidin-3-amine] | 7.48 | 9.40 | 9.59
CC(C)(O)Cc1cc2nc(-c3nnc4ccc([C@H](N5CC[C@H](N)C5)C(F)(F)F)cn34)ccc2cc1F [Example 237, dihydrochloride] | 6.68 | 8.74 | 8.54
N[C@H]1CCN([C@H](c2ccc3nnc(-c4ccc5cccc(F)c5n4)n3c2)C(F)(F)F)C1 [Example 168, (S)-1-((R)-2,2,2-trifluoro-1-(3-(8-fluoroquinolin-2-yl)-[1,2,4]triazolo[4,3-a]pyridin-6-yl)ethyl)pyrrolidin-3-amine dihydrochloride] | < 7.00 | 7.82 | 8.76
N#CCOc1cccc2ccc(-c3nnc4ccc([C@@H](N5CC[C@H](N)C5)C(F)(F)F)cn34)nc12 [Example 270, 2-(2-(6-((R)-1-((S)-3-aminopyrrolidin-1-yl)-2,2,2-trifluoroethyl)-[1,2,4]triazolo[4,3-a]pyridin-3-yl)quinolin-8-yloxy)acetonitrile formate] | 6.36 | 8.72 | 9.42
Cc1cnn(-c2ccc3ccc(-c4nnc5ccc([C@@H](N6CC[C@H](N)C6)C(F)(F)F)cn45)nc3c2C)c1 [Example 190, (S)-1-((R)-2,2,2-trifluoro-1-(3-(8-methyl-7-(4-methyl-1H-pyrazol-1-yl)quinolin-2-yl)-[1,2,4]triazolo[4,3-a]pyridin-6-yl)ethyl)pyrrolidin-3-amine dihydrochloride] | < 7.00 | 9.00 | 8.99
N[C@H]1CCN([C@H](c2ccc3nnc(-c4ccc5cccc(C6(CO)CC6)c5n4)n3c2)C(F)(F)F)C1 [Example 114, (1-(2-(6-((R)-1-((S)-3-aminopyrrolidin-1-yl)-2,2,2-trifluoroethyl)-[1,2,4]triazolo[4,3-a]pyridin-3-yl)quinolin-8-yl)cyclopropyl)methanol dihydrochloride] | 8.25 | 9.52 | 10.22
Cn1cc(-c2ccc3ccc(-c4nnc5ccc([C@@H](N6CC[C@H](N)C6)C(F)(F)F)cn45)nc3c2)cn1 (single isomer, unassigned) [Example 15, tri-hydrochloride] | 7.23 | 9.52 | 10.05
COC[C@H](C)Oc1cccc2ccc(-c3nnc4ccc([C@@H](N5CC[C@H](N)C5)C(F)(F)F)cn34)nc12 [Example 141, (S)-1-((R)-2,2,2-trifluoro-1-(3-(8-((S)-1-methoxypropan-2-yloxy)quinolin-2-yl)-[1,2,4]triazolo[4,3-a]pyridin-6-yl)ethyl)pyrrolidin-3-amine dihydrochloride] | 7.05 | 9.05 | 9.70
N[C@H]1CCN([C@H](c2ccc3nnc(-c4ccc5cccc(Cl)c5n4)n3c2)C(F)(F)F)C1 [Example 182, (S)-1-((R)-2,2,2-trifluoro-1-(3-(8-chloroquinolin-2-yl)-[1,2,4]triazolo[4,3-a]pyridin-6-yl)ethyl)pyrrolidin-3-amine dihydrochloride] | < 7.00 | 8.39 | 9.12
C[C@]1(N)CCN([C@@H](c2ccc3nnc(-c4ccc5cccc(C6CC6)c5n4)n3c2)C(F)(F)F)C1 [Example 96, (S)-1-((S)-1-(3-(8-cyclopropylquinolin-2-yl)-[1,2,4]triazolo[4,3-a]pyridin-6-yl)-2,2,2-trifluoroethyl)-3-methylpyrrolidin-3-amine dihydrochloride] | 8.27 | 9.30 | 9.92
